“And” between values parts separate entries of the source, which are not always exact repeats. Equal entries are not always repeated.

These results are taken from ChEMBL document CHEMBL1127227, “1H-1,2,4-triazole angiostensin II receptor antagonists: qC-linkedq analogs of SC-50560” (Bioorg Med Chem Lett, 1994).

The target in one assay is T1, Angiotensin II receptor (Rattus norvegicus, UniProt P29089+P25095+P35351).
T1 sequence (P29089 whole entry): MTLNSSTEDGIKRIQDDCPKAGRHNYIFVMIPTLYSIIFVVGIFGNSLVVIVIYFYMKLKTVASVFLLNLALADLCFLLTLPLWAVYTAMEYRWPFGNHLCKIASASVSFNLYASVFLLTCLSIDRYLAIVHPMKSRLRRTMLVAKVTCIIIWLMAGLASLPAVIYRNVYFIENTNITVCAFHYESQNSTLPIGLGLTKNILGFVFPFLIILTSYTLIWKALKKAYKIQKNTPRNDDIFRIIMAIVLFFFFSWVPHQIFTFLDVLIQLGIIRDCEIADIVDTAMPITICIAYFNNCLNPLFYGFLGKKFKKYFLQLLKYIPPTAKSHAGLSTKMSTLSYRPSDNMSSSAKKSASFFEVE
T1 sequence (P25095 whole entry): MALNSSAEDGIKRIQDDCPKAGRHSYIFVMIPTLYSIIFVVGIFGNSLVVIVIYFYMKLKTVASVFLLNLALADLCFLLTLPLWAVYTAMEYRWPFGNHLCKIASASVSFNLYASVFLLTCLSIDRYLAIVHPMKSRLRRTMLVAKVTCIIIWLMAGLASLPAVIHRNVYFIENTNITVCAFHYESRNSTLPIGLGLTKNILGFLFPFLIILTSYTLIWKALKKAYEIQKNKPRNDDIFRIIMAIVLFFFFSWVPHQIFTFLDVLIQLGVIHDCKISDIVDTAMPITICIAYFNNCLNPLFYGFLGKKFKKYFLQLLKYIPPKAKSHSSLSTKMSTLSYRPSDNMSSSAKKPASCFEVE
T1 sequence (P35351 whole entry): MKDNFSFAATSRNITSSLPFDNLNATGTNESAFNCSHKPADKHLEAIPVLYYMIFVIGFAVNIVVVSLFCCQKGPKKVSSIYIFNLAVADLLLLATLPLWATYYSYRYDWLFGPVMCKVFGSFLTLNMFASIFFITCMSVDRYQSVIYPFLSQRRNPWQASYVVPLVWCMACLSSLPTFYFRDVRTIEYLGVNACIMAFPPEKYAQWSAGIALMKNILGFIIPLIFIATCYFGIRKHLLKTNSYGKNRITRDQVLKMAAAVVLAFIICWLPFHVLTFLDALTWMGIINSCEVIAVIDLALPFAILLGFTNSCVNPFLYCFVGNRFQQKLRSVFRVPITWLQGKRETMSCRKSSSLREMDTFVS
The assay is described as follows: Inhibition of [125I]- AII binding to rat uterine membrane angiotensin II receptor.

The species entered for another assay is Oryctolagus cuniculus. As to the kind of experiment: Antagonism of AII-contracted rabbit aortic rings. Type of assay: functional, organism-based, Aorta. The conditions noted are these: for Kb: Oryctolagus cuniculus, Aorta, read-out: pA2 (converted).

On Angiotensin II receptor, `CCCCc1nc(Cc2ccc(-c3ccccc3-c3nnn(C(c4ccccc4)(c4ccccc4)c4ccccc4)n3)cc2)n(CCCC)n1` returned an IC50 of 0.14 µM.

Regarding `CCCCc1nc(Cc2ccc(-c3ccccc3C(=O)O)cc2)n(CCCC)n1`, the IC50 on Angiotensin II receptor amounted to 0.24 µM. In the assay listed under Oryctolagus cuniculus, the Kb was 0.0794 µM.

The compound `CCCCc1nc(Cc2ccc(-c3ccccc3-c3nn[nH]n3)cc2)n(CCCC)n1` came in with an IC50 on Angiotensin II receptor of 0.016 µM. In the assay filed under Oryctolagus cuniculus, the Kb is 0.00316 µM.

`CCCCc1nc(C(F)(F)c2ccc(-c3ccccc3-c3nn[nH]n3)cc2)n(CCCC)n1`: the half-maximal inhibitory concentration (IC50) at Angiotensin II receptor is 0.71 µM.

For the compound `CCCCn1nc(C(F)(F)CCC)nc1Cc1ccc(-c2ccccc2-c2nn[nH]n2)cc1`, the concentration for half-maximal inhibition (IC50) at Angiotensin II receptor was 0.04 µM. Besides, the Kb in the assay filed under Oryctolagus cuniculus was 0.01 µM.

As to `CCCCc1nc(C(O)c2ccc(-c3ccccc3-c3nn[nH]n3)cc2)n(CCCC)n1` (stereo not drawn), the IC50 on Angiotensin II receptor turned out to be 1.8 µM. Further, in the assay filed under Oryctolagus cuniculus, the Kb was 0.251 µM.

Regarding `CCCCc1nc(Cc2ccc(-c3ccccc3-c3nn[nH]n3)cc2)nn1CCCC`, at Angiotensin II receptor, the concentration for half-maximal inhibition (IC50) is 12 µM and 6.7 µM. Moreover, in the assay filed under Oryctolagus cuniculus, the pA2 turned out to be 5.3 and the Kb is 10 µM.

`CCCCc1nc(CCCC)n(Cc2ccc(-c3ccccc3-c3nn[nH]n3)cc2)n1`: the Kb in the assay listed under Oryctolagus cuniculus is 0.002 µM.

At Angiotensin II receptor, `CCCCc1nc(C(C)c2ccc(-c3ccccc3-c3nn[nH]n3)cc2)n(CCCC)n1` (stereo not drawn) showed an IC50 of 29 µM.

In turn, `CCCCc1nc(C(=O)c2ccc(-c3ccccc3-c3nn[nH]n3)cc2)n(CCCC)n1` returned an IC50 on Angiotensin II receptor of 32 µM.

As for `CCCCn1nc(CCc2ccccc2)nc1Cc1ccc(-c2ccccc2-c2nn[nH]n2)cc1`, at Angiotensin II receptor, the IC50 was 0.0095 µM. Further, the Kb in the assay filed under Oryctolagus cuniculus is 0.0126 µM.
